US20230172204A1 (BASF SE, priority 2020, published 2023)

Assays:
[1] = system: Phakopsora pachyrhizi (F129L); assay: Protective control of soybean rust on soybeans (PHAKPA P6); assay type: in vivo; conditions: for % PHAKPA (F129L) Disease level P6 at 4 ppm: protective P6, 4 ppm; for % PHAKPA (F129L) Disease level P6 at 4 ppm / % PHAKPA (F129L) Disease level P6 at 16 ppm: soybean rust F129L; for % PHAKPA (F129L) Disease level P6 at 16 ppm: protective P6, 16 ppm
[2] = system: Phakopsora pachyrhizi (F129L); assay: Protective control of soybean rust on soybeans (PHAKPA P2); assay type: in vivo; conditions: for % PHAKPA (F129L) Disease level P2 at 4 ppm: protective P2, 4 ppm; for % PHAKPA (F129L) Disease level P2 at 4 ppm / % PHAKPA (F129L) Disease level P2 at 16 ppm: soybean rust F129L; for % PHAKPA (F129L) Disease level P2 at 16 ppm: protective P2, 16 ppm
[3] = P6 protective, % diseased leaf area
[4] = P2 protective, % diseased leaf area

SMILES | % PHAKPA (F129L) Disease level P6 at 4 ppm [1] | % PHAKPA (F129L) Disease level P6 at 16 ppm [1] | % PHAKPA (F129L) Disease level P2 at 4 ppm [2] | % PHAKPA (F129L) Disease level P2 at 16 ppm [2] | PHAKPA (F129L) Disease level (%) P6 at 4 ppm ([1]; P6 protective, 4 ppm, % diseased leaf area) | PHAKPA (F129L) Disease level (%) P2 at 4 ppm ([2]; P2 protective, 4 ppm, % diseased leaf area) | PHAKPA (F129L) Disease level (%) P6 at 16 ppm [1, 3] | PHAKPA (F129L) Disease level (%) P2 at 16 ppm [2, 4]
CO/N=C(/C(=O)OC)c1cccc(C)c1CO/N=C(\C)c1ccc(Cc2ccccc2)cc1C(F)(F)F [compound 408] | 33% | 13% | 30% | 12% |  |  |  | 
CNC(=O)/C(=N/OC)c1cccc(C)c1CO/N=C(\C)c1ccc(OC)cc1C(F)(F)F [compound 324] | 12% | 0% | 2% | 1% |  |  |  | 
CNC(=O)/C(=N/OC)c1cccc(C2CC2)c1CO/N=C(\C)c1cccc(C(F)(F)F)c1 [Ex. 11] | 20% | 0% | 23% | 1% |  |  |  | 
CNC(=O)/C(=N/OC)c1cccc(C)c1CO/N=C(\C)c1ccc(Cl)c(Cl)c1 [Ex. 41] | 36% | 14% | 15% | 9% | 35% | 4% |  | 
CO/N=C(/C(=O)OC)c1cccc(C)c1CO/N=C(\C)c1c(C)cccc1F [compound 285] | 90% | 35% | 87% | 50% |  |  |  | 
CO/N=C(/C(=O)OC)c1cccc(C)c1CO/N=C(\C)c1cccc(C2CC2)c1 [compound 297] | 87% | 37% | 90% | 37% |  |  |  | 
CO/N=C(/C(=O)OC)c1cccc(C)c1CO/N=C(\C)c1cc(C(F)(F)F)cc(F)c1F [compound 180] | 5% | 0% | 40% | 7% |  |  |  | 
CO/N=C(/C(=O)OC)c1cccc(C)c1CO/N=C(\C)c1ccc(C(C)=O)cc1 [compound 166] | 90% | 43% | 100% | 83% |  |  |  | 
CO/C=C(/C(=O)OC)c1cccc(C)c1CO/N=C(\C)c1c(Cl)ccc(F)c1OC(F)(F)F [compound 442] | 80% | 77% | 100% | 93% |  |  |  | 
CNC(=O)/C(=N/OC)c1ccccc1CO/N=C(\C)c1ccc(-c2ccccc2)cc1 [reference compound] |  |  |  |  |  |  | 28% | 37%
CNC(=O)/C(=N/OC)c1cccc(C)c1CO/N=C(\C)c1c(F)cc(F)cc1C(F)(F)F [compound 357] | 18% | 0% | 13% | 1% |  |  |  | 
CO/N=C(/C(=O)OC)c1cccc(C)c1CO/N=C(\C)c1cccc(C#N)c1 [Ex. 104] | 19% | 11% | 22% | 15% |  |  | 28% | 37%
CO/N=C(/C(=O)OC)c1cccc(C)c1CO/N=C(\C)c1cc(Cl)ccc1Cl [compound 117] | 88% | 12% | 85% | 10% |  |  |  | 
CO/N=C(/C(=O)OC)c1cccc(C)c1CO/N=C(\C)c1ccc(F)c(C(F)(F)F)c1 [compound 49] | 60% | 7% | 60% | 18% |  |  |  | 
CO/N=C(/C(=O)OC)c1cccc(C)c1CO/N=C(\C)c1ccc(OC)cc1OC(F)(F)F [compound 373] | 100% | 38% | 77% | 27% |  |  |  | 
CNC(=O)/C(=N/OC)c1cccc(C)c1CO/N=C(\C)c1cccc(F)c1OC(F)(F)F [compound 354] | 21% | 4% | 17% | 2% |  |  |  | 
CNC(=O)/C(=N/OC)c1cccc(C)c1CO/N=C(\C)c1ccccc1CC(F)(F)F [compound 223] | 28% | 0% | 4% | 0% |  |  |  | 
CNC(=O)/C(=N/OC)c1cccc(C)c1CO/N=C(\C)c1ccccc1CC(C)C [compound 221] | 100% | 100% | 100% | 63% |  |  |  | 

SMILES | % PHAKPA (F129L) Disease level P6 at 4 ppm [1] | % PHAKPA (F129L) Disease level P6 at 16 ppm [1] | % PHAKPA (F129L) Disease level P2 at 4 ppm [2] | % PHAKPA (F129L) Disease level P2 at 16 ppm [2] | PHAKPA (F129L) Disease level (%) P6 at 4 ppm ([1]; P6 protective, 4 ppm, % diseased leaf area) | PHAKPA (F129L) Disease level (%) P2 at 4 ppm ([2]; P2 protective, 4 ppm, % diseased leaf area) | PHAKPA (F129L) Disease level (%) P6 at 16 ppm [1, 3] | PHAKPA (F129L) Disease level (%) P2 at 16 ppm [2, 4]
CNC(=O)/C(=N/OC)c1cccc(C)c1CO/N=C(\C)c1ccc(/C(C)=N\OC)cc1C(F)(F)F [compound 420] | 12% | 1% | 8% | 0% |  |  |  | 
CNC(=O)/C(=N/OC)c1cccc(C)c1CO/N=C(\COC)c1ccccc1 [compound 295] | 11% | 0% | 2% | 0% |  |  |  | 
CNC(=O)/C(=N/OC)c1cccc(C)c1CO/N=C(\C)c1cccc(-c2noc(C(F)(F)F)n2)c1 [compound 67] | 80% | 30% | 67% | 2% |  |  |  | 
CO/N=C(/C(=O)OC)c1cccc(C)c1CO/N=C(\C)c1cc(Cl)cc(Cl)c1 [Ex. 3, Methyl (2E)-2-[2-[[(E)-1-(3,5-dichlorophenyl)ethylideneamino]oxymethyl]-3-methyl-phenyl]-2-methoxyimino-acetate] | 40% | 6% | 30% | 3% |  |  | 1% | 2%
CNC(=O)/C(=N/OC)c1cccc(C)c1CO/N=C(\C)c1c(F)ccc(C(F)(F)F)c1F [compound 162] | 1% | 0% | 0% | 0% |  |  |  | 
CCc1ccccc1/C(C)=N/OCc1c(C)cccc1/C(=N\OC)C(=O)OC [compound 175] | 100% | 93% | 100% | 97% |  |  |  | 
CO/N=C(/C(=O)OC)c1ccccc1CO/N=C(\C)c1ccc(C#N)cc1 [reference compound] |  |  |  |  |  |  | 53% | 87%
C#Cc1cc(F)ccc1/C(C)=N/OCc1c(C)cccc1/C(=N\OC)C(=O)NC [compound 286] | 97% | 27% | 67% | 15% |  |  |  | 
CNC(=O)/C(=N/OC)c1cccc(C)c1CO/N=C(\C)c1ccc(-c2ccc(F)cc2)cc1C(F)(F)F [compound 426] | 27% | 10% | 7% | 1% |  |  |  | 
CNC(=O)/C(=N/OC)c1cccc(C)c1CO/N=C(/c1ccccc1)C(F)(F)F [compound 458] | 83% | 50% | 93% | 57% |  |  |  | 
CNC(=O)/C(=N/OC)c1cccc(Br)c1CO/N=C(\C)c1ccccc1 [compound 396] | 4% | 0% | 3% | 0% |  |  |  | 
CO/N=C(\C)c1ccc(/C(C)=N/OCc2ccccc2/C(=N\OC)C(=O)OC)cc1 [reference compound] |  |  |  |  |  |  | 60% | 57%
CNC(=O)/C(=N/OC)c1cccc(C)c1CO/N=C(\C)c1cc(C)ccc1C [compound 278] | 90% | 93% | 90% | 60% |  |  |  | 
CO/N=C(/C(=O)OC)c1cccc(C)c1CO/N=C(\C)c1cc(C)cc(C(F)(F)F)c1 [compound 65] | 100% | 87% | 93% | 77% |  |  |  | 
CO/N=C(/C(=O)OC)c1cccc(C)c1CO/N=C(\C)c1ccc(F)cc1C(F)(F)F [compound 263] | 73% | 22% | 80% | 15% |  |  |  | 
CC/C(=N\OCc1c(C)cccc1/C(=N\OC)C(=O)NC)c1ccccc1 [compound 294] | 2% | 0% | 1% | 1% |  |  |  | 
CO/C=C(/C(=O)OC)c1cccc(C)c1CO/N=C(\C)c1ccc(-c2ccc(F)cc2)cc1C(F)(F)F [compound 432] | 13% | 3% | 12% | 0% |  |  |  | 
